Results taken from patent US4172891A, “Cephalosporins” (Takeda Chemical Industries, Inc., priority 1976, dated 1979).
Values after ≈ are worked out from the molar mass of the structure shown. Read-outs that look alike come from different tables or passages of the source.

Columns and labels:
E. coli NIHJ = experiment: Minimum Inhibitory Concentration, agar dilution, E. coli NIHJ; format: cell-based; conditions: Escherichia coli, read-out: Minimum Inhibitory Concentration
Excerpt: (§1) […]. | Minimum Inhibitory Concentrations (mcg/ml, agar dilution)

E. coli O-111 = experiment: Minimum Inhibitory Concentration, agar dilution, E. coli O-111; format: cell-based; conditions: Escherichia coli, O111; E. coli O-111; agar dilution; read-out: Minimum Inhibitory Concentration
Excerpt: (§2) Following each example is a tabulation of the minimal inhibitory concentrations (MIC) of the present compound [I] obtained in accordance with the particular example against several representative gram-negative bacteria and the corresponding concentrations of cephaloridine [7-(2-thienylacetamido)-3-(1-pyridyl)methyl-3-cephem-4-carboxylic acid betaine] and cefazolin [sodium 7-(1H-tetrazol-1-yl)acetamido-3-(2-methyl-1,3,4-thiadiazol-5-yl)thiomethyl-3-cephem-4-carboxylate], both of which are typical cephalosporins commercially available and clinically accepted nowadays [The New England Journal of Medicine 294, 24 (1976) and Journal of Pharmaceutical Science 64, 1899 (1975)]. There are also shown the effective doses of the typical compounds of this invention on the mice infected with Escherichia coli in comparison with that of cephaloridine.
Minimum Inhibitory Concentrations (mcg/ml, agar dilution)

E. coli T-7 = experiment: Minimum Inhibitory Concentration, agar dilution, E. coli T-7; format: cell-based; conditions: Escherichia coli
Excerpt: as §1

K. pneumoniae DT = experiment: Minimum Inhibitory Concentration, agar dilution, K. pneumoniae DT; format: cell-based; conditions: Klebsiella pneumoniae, read-out: Minimum Inhibitory Concentration
Excerpt: as §1

K. pneumoniae GN 3835 = experiment: Minimum Inhibitory Concentration, agar dilution, K. pneumoniae GN 3835; format: cell-based; conditions: Klebsiella pneumoniae
Excerpt: as §1

P. vulgaris IFO 3988 = experiment: Minimum Inhibitory Concentration, agar dilution, P. vulgaris IFO 3988; format: cell-based; conditions: Proteus vulgaris
Excerpt: as §1

P. mirabilis GN 4359 = experiment: Minimum Inhibitory Concentration, agar dilution, P. mirabilis GN 4359; format: cell-based; conditions: Proteus mirabilis
Excerpt: as §1

P. morganii IFO 3168 = experiment: Minimum Inhibitory Concentration, agar dilution, P. morganii IFO 3168; format: cell-based, Proteus morganii; conditions: Morganella morganii
Excerpt: as §1

P. rettgeri 8(TNO 336) = experiment: Minimum Inhibitory Concentration, agar dilution, P. rettgeri 8(TNO 336); format: cell-based, Proteus rettgeri; conditions: Providencia rettgeri
Excerpt: as §1

P. rettgeri GN 4733 = experiment: Minimum Inhibitory Concentration, agar dilution, P. rettgeri GN 4733; format: cell-based, Proteus rettgeri; conditions: Providencia rettgeri
Excerpt: as §1

Ent. cloacae IFO 12937 = experiment: Minimum Inhibitory Concentration, agar dilution, Ent. cloacae IFO 12937; format: cell-based; conditions: Enterobacter cloacae
Cit. freundii GN 99 = experiment: Minimum Inhibitory Concentration, agar dilution, Cit. freundii GN 99; format: cell-based; conditions: Citrobacter freundii
Excerpt: as §1

Cit. freundii GN 1706 = experiment: Minimum Inhibitory Concentration, agar dilution, Cit. freundii GN 1706; format: cell-based; conditions: Citrobacter freundii
Excerpt: as §1

Escherichia coli O-111 = experiment: Comparative protection test on infected mice; format: in vivo; conditions: O111, sc, 168 h; male ICR/SLC mice infected intraperitoneally with Escherichia coli O-111; single subcutaneous dose immediately after challenge; 7 days observation
Excerpt: as §2
Comparative protection tests of the compounds of this
invention and cephaloridine on infected mice
*Test animals: male mice (ICR/SLC) 5 mice per group per single dose
Infection: intraperitoneally with Escherichia coli O-111
Administration: a single subcutaneous dose immediately after challenge
Observation period: 7 days

[1] = T7, E. coli T-7, agar dilution, read-out: Minimum Inhibitory Concentration
[2] = K. pneumoniae DT, agar dilution
[3] = GN3835, K. pneumoniae GN 3835, agar dilution, read-out: Minimum Inhibitory Concentration
[4] = IFO3988, P. vulgaris IFO 3988, agar dilution, read-out: Minimum Inhibitory Concentration
[5] = GN4359, P. mirabilis GN 4359, agar dilution, read-out: Minimum Inhibitory Concentration
[6] = IFO3168, P. morganii IFO 3168, agar dilution, read-out: Minimum Inhibitory Concentration
[7] = P. rettgeri 8(TNO 336), read-out: Minimum Inhibitory Concentration
[8] = GN4733, P. rettgeri GN 4733, agar dilution, read-out: Minimum Inhibitory Concentration
[9] = IFO12937, Ent. cloacae IFO 12937, agar dilution, read-out: Minimum Inhibitory Concentration
[10] = GN99, Cit. freundii GN 99, agar dilution, read-out: Minimum Inhibitory Concentration
[11] = GN1706, Cit. freundii GN 1706, agar dilution, read-out: Minimum Inhibitory Concentration
[12] = T7, read-out: Minimum Inhibitory Concentration
[13] = GN3835, read-out: Minimum Inhibitory Concentration
[14] = IFO3988, read-out: Minimum Inhibitory Concentration
[15] = GN4359, read-out: Minimum Inhibitory Concentration
[16] = IFO3168, read-out: Minimum Inhibitory Concentration
[17] = read-out: Minimum Inhibitory Concentration, P. rettgeri 8(TNO 336)
[18] = GN4733, read-out: Minimum Inhibitory Concentration
[19] = IFO12937, read-out: Minimum Inhibitory Concentration
[20] = GN99, read-out: Minimum Inhibitory Concentration
[21] = GN1706, read-out: Minimum Inhibitory Concentration

Row | Structure (SMILES) | MIC (E. coli NIHJ; E. coli NIHJ, agar dilution) [µg/mL] | MIC (E. coli O-111) [µg/mL] | MIC (E. coli T-7; [1]) [µg/mL] | MIC (K. pneumoniae DT; [2]) [µg/mL] | MIC (K. pneumoniae GN 3835; [3]) [µg/mL] | MIC (P. vulgaris IFO 3988; [4]) [µg/mL] | MIC (P. mirabilis GN 4359; [5]) [µg/mL] | MIC (P. morganii IFO 3168; [6]) [µg/mL] | MIC (P. rettgeri 8(TNO 336); [7]) [µg/mL] | MIC (P. rettgeri GN 4733; [8]) [µg/mL] | MIC (Ent. cloacae IFO 12937; [9]) [µg/mL] | MIC (Cit. freundii GN 99; [10]) [µg/mL] | MIC (Cit. freundii GN 1706; [11]) [µg/mL] | ED50 (Escherichia coli O-111) [mg/kg] | MIC (E. coli NIHJ) [µg/mL] | MIC (E. coli T-7; [12]) [µg/mL] | MIC (K. pneumoniae DT) [µg/mL] | MIC (K. pneumoniae GN 3835; [13]) [µg/mL] | MIC (P. vulgaris IFO 3988; [14]) [µg/mL] | MIC (P. mirabilis GN 4359; [15]) [µg/mL] | other results
1 | Cc1nnc(SCC2=C(C(=O)O)N3C(=O)C(NC(=O)Cc4csc(=N)n4O)C3SC2)s1 (centres unmarked) [Example 4, sodium 7-[2-(2-imino-3-hydroxy-4-thiazolin-4-yl)acetamido]-3-(2-methyl-1,3,4-thiadiazol-5-yl)thiomethyl-3-cephem-4-carboxylate] | 0.05 | 0.024 | 1.56 | 0.05 | 0.2 | 0.1 | 0.05 | 0.1 | 0.012 | 0.1 | 50 | 0.78 | 1.56 | 0.019 |  |  |  |  |  |  | 
2 | N=c1scc(CC(=O)NC2C(=O)N3C(C(=O)O)=C(CSc4c[nH]nn4)CSC23)n1O (centres unmarked) [Example 7, sodium 7-[2-(2-imino-3-hydroxy-4-thiazolin-4-yl)acetamido]-3-(1H-1,2,3-triazol-4-yl)thiomethyl-3-cephem-4-carboxylate] | 0.78 | 0.05 | 3.13 | 0.1 | 0.1 | 0.2 | 0.1 | 0.39 | ≤ 0.03 | 0.78 | > 100 | 1.56 | 12.5 | 0.056 |  |  |  |  |  |  | 
3 | N=c1scc(CC(=O)NC2C(=O)N3C(C(=O)[O-])=C(COC(N)=O)CS[C@H]23)n1O.[Na+] (some centres unmarked) [Example 13, sodium 7-[2-(2-imino-3-hydroxy-4-thiazolin-4-yl)acetamido]-3-(carbamoyloxymethyl)-3-cephem-4-carboxylate] |  | 0.1 |  |  |  |  |  |  |  |  |  |  |  | 0.084 | 0.2 | 1.56 | 0.2 | 0.2 | 0.39 | 0.2 | MIC (P. morganii IFO 3168; [16]): 0.78 µg/mL; MIC (P. rettgeri 8(TNO 336); [17]): ≤ 0.012 µg/mL; MIC (P. rettgeri GN 4733; [18]): 0.2 µg/mL; MIC (Ent. cloacae IFO 12937; [19]): 50 µg/mL; MIC (Cit. freundii GN 99; [20]): 0.78 µg/mL; MIC (Cit. freundii GN 1706; [21]): 3.13 µg/mL
4 | CC(=O)OCC1=C(C(=O)O)N2C(=O)C(NC(=O)Cc3csc(=N)n3O)C2SC1 (centres unmarked) [Example 1, sodium 7-[2-(2-imino-3-hydroxy-4-thiazolin-4-yl)acetamido]-3-acetoxymethyl-3-cephem-4-carboxylate] | 0.2 | 0.1 | 3.13 | 0.1 | 0.2 | 0.39 | 0.2 | 0.39 | ≤ 0.03 | 0.1 | 12.5 | 1.56 | 3.13 | 0.075 |  |  |  |  |  |  | 
5 | N=c1scc(CC(=O)NC2C(=O)N3C(C(=O)[O-])=C(C[n+]4ccc(C(N)=O)cc4)CSC23)n1O (centres unmarked) [Example 10, 7-[2-(2-imino-3-hydroxy-4-thiazolin-4-yl)acetamido]-3-(4-carbamoylpyridinium)methyl-3-cephem-4-carboxylic acid betain] | 1.56 (≈ 3.18 µM) | 0.39 (≈ 0.795 µM) | 25 (≈ 51 µM) | 0.78 (≈ 1.59 µM) | 1.56 (≈ 3.18 µM) | 0.78 (≈ 1.59 µM) | 0.78 (≈ 1.59 µM) | 3.13 (≈ 6.38 µM) | ≤ 0.2 | ≤ 0.2 | 25 (≈ 51 µM) | 1.56 (≈ 3.18 µM) | 12.5 (≈ 25.5 µM) | 0.089 |  |  |  |  |  |  | 
6 | Cn1c(CO)nnc1SCC1=C(C(=O)[O-])N2C(=O)C(NC(=O)Cc3csc(=N)n3O)[C@H]2SC1.[Na+] (some centres unmarked) [Example 8, sodium 7-[2-(2-imino-3-hydroxy-4-thiazolin-4-yl)acetamido]-3-(3-hydroxymethyl-4-methyl-1,2,4-triazol-5-yl)thiomethyl-3-cephem-4-carboxylate] |  | ≤ 0.2 |  |  |  |  |  |  |  |  |  |  |  |  | ≤ 0.2 | 1.56 | ≤ 0.2 | ≤ 0.2 | 0.39 | ≤ 0.2 | MIC (P. morganii IFO 3168; [16]): ≤ 0.2 µg/mL; MIC (P. rettgeri 8(TNO 336); [17]): ≤ 0.2 µg/mL; MIC (P. rettgeri GN 4733; [18]): ≤ 0.2 µg/mL; MIC (Ent. cloacae IFO 12937; [19]): 12.5 µg/mL; MIC (Cit. freundii GN 99; [20]): 0.78 µg/mL; MIC (Cit. freundii GN 1706; [21]): 3.13 µg/mL
